Structures are written as SMILES.

As usually defined, the Ki is the dissociation constant of the complex between target and ligand, obtained from inhibition or displacement. A lower Ki goes with tighter binding.

Assay [1] deals with T1, Retinoic acid receptor alpha [200-419] (Homo sapiens, UniProt P10276).
T1 construct: 200-419
T1 sequence (P10276 whole entry): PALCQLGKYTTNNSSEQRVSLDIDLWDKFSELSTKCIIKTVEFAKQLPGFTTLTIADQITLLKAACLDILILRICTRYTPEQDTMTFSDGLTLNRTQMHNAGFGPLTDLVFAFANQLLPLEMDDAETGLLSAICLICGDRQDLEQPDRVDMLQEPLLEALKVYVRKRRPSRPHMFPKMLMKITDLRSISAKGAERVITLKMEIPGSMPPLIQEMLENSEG
Kind of assay: Competitive Assay. The following applies: pH 8; 4 °C. Here is the method:
(§1) Competitive assay were perform with 5nM tritiated all-trans retinoic acid (t-RA; 5nM) with or without 100-fold excess of non-radioactive t-RA (500nM).

Assay [2] deals with T2, Retinoic acid receptor alpha [200-419]/gamma [183-417] (Homo sapiens, UniProt P10276+P13631).
T2 construct: 200-419; 183-417
T2 sequence (P13631 whole entry): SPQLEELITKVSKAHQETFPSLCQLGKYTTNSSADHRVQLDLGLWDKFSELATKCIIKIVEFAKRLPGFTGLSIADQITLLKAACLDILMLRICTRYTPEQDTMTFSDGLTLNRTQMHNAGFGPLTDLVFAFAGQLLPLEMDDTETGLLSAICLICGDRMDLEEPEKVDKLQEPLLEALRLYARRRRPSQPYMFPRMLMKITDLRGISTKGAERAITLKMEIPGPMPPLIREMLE
T2 sequence (P10276 whole entry): T1 sequence (P10276 whole entry)
The assay can be described thus: Competitive Assay. The following applies: pH 8; 4 °C. How it is done: as §1

As to `CC1(C)CC=C(c2cnc3ccccc3c2)c2cc(C(=O)Nc3ccc(C(=O)O)cc3)ccc21` [BMS614], the Ki in assay [1] was determined as 2.5 nM; in assay [2], 1 nM.
With `CC1(C)C(=O)C(C)(C)c2cc(C(=O)Nc3ccc(C(=O)O)cc3)ccc21` [BMS753], the Ki in assay [1] came to 2 nM; in assay [2], 1 nM.
